Source: US20190231718A1, “TREATMENT OF BREAST CANCER” (Duke University, priority 2016, published 2019)
Where a chain is given by its changes, count along the chain named. Like-named read-outs stand apart in the source and are kept apart here.

Columns and labels:
[1] = Reported Cmax in blood at approved doses; type: in vivo
Text: See Maximov et al., Current Clinical Pharmacology 8(2): 135-155 (2013) and McDonnell et al., Journal of Medicinal Chemistry 58(12): 4883-4887 (2015). The transcriptional IC90 values of ER modulators evaluated were compared to the Cmax of these compounds in blood at approved doses. See Highlights of Prescribing Information: Evista, 2007; Highlights of Prescribing Information: Faslodex, 2012; Nolvadex, 2006; and Summary of Product Characteristics: Conbriza 2009.

[2] = in blood at approved doses: ICI 500 mg, 4OHT 20 mg, raloxifene 60 mg, bazedoxifene 20 mg; cited from earlier work
[3] = target: T1, ESR1 wild type receptor (ERα WT) (Homo sapiens, UniProt P03372); experiment: ERE-luciferase reporter gene assay, wild-type ERα, Caov2 cells; type: cell-based
T1 construct: expressed in transfected cells; host or cells: Caov2 ovarian carcinoma cells; SKBR3 breast adenocarcinoma cells
T1 sequence (P03372 1-595): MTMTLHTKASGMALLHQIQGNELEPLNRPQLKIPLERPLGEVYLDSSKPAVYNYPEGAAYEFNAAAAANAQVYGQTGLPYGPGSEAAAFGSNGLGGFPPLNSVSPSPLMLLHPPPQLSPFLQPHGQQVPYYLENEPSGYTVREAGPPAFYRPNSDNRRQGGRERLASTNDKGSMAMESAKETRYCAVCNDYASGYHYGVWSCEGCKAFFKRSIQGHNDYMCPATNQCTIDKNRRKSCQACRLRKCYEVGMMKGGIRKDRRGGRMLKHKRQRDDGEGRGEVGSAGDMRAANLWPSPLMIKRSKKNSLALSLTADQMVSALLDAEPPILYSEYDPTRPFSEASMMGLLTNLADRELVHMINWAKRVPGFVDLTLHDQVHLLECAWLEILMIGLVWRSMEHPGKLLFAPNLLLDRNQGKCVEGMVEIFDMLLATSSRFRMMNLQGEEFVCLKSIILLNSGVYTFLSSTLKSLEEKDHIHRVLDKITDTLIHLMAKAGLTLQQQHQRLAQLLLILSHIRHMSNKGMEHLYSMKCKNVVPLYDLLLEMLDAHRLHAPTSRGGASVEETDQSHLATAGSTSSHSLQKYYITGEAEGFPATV
Method: (§1) ExSite mutagenesis was performed using the corresponding primers as summarized in Table 1 below on a pENTR2B ERα WT construct using Pfu ultra taq polymerase. The primers were PNK phosphorylated. Following PCR amplification, the products were digested with DpnI at 37° C. for 1 hr, followed by overnight ligation at 16° C. Ligated products were transformed into DH5α bacterial cells and grown on kanamycin resistant plates. The pENTR clones were verified by sequencing and then swapped into the pcDNA-DEST vector using the Gateway system (Invitrogen) for expression analysis.
(§2) Caov2 ovarian carcinoma cells were grown in RPMI-1640 media (Gibco) supplemented with 8% Fetal Bovine Serum (FBS), Sodium Pyruvate (NaPyr) and non-essential amino acids (NEAA) and passaged every 2-3 days. SKBR3 breast adenocarcinoma cells were grown in DMEM media (Gibco) supplemented with 8% Fetal Bovine Serum (FBS), Sodium Pyruvate (NaPyr) and non-essential amino acids (NEAA) and passaged every 2-3 days. […]
(§3) Caov2 cells were co-transfected with the 7X-TK-ERE-TATA luciferase reporter gene (Nagel et al., Endocrinology 142(11): 4721-4728 (2001)) and expression constructs for either wild-type or mutant receptors using Fugene transfection reagent (Promega). […] Following 24 hours of treatment, cells were lysed and the luciferase and β-gal assays were performed as described previously (Norris et al., J Biol Chem 270(39): 22777-22782 (1995)) and the plates were read on the Fusion α-FP HT plate reader (PerkinElmer Life Sciences).
(§4) See Jeselsohn et al., Nature Reviews Clinical Oncology 12(10): 573-583 (2015); Jeselsohn et al., Clinical Cancer Research 20(7): 1757-1767 (2014); Robinson et al., Nature Genetics 45(12): 1446-1451(2013); Thomas and Gustafsson, Trends in Endocrinology and Metabolism 26(9): 467-476 (2015); and Toy et al., Nature Genetics 45(12): 1439-1445 (2013). The activity of these mutants was evaluated in a reconstituted estrogen response element (ERE)-luciferase reporter assay in Caov2 ovarian carcinoma cells and SKBR3 breast adenocarcinoma cells. […]

[4] = target: T2, Y537N mutant receptor (ERα LBD mutant) (Homo sapiens, UniProt P03372, Y537N); experiment: ERE-luciferase reporter gene assay, ERα Y537N, Caov2 cells; type: cell-based
T2 construct: expressed in transfected cells; host or cells: Caov2 ovarian carcinoma cells; SKBR3 breast adenocarcinoma cells
T2 sequence (P03372 1-595 Y537N): T1 sequence (P03372 1-595) with Y537N
Method: as §1, §2, §3, §4

[5] = target: T3, Y537C mutant receptor (ERα LBD mutant) (Homo sapiens, UniProt P03372, Y537C); experiment: ERE-luciferase reporter gene assay, ERα Y537C, Caov2 cells; type: cell-based
T3 construct: expressed in transfected cells; host or cells: Caov2 ovarian carcinoma cells; SKBR3 breast adenocarcinoma cells
T3 sequence (P03372 1-595 Y537C): T1 sequence (P03372 1-595) with Y537C
Method: as §1, §2, §3, §4

[6] = target: T1, ESR1 wild type receptor (ERα WT); experiment: ERE-luciferase reporter gene assay, wild-type ERα, SKBR3 cells; type: cell-based
Method: as §1, §2, §3, §4

[7] = target: T2, Y537N mutant receptor (ERα LBD mutant); experiment: ERE-luciferase reporter gene assay, ERα Y537N, SKBR3 cells; type: cell-based
Method: as §1, §2, §3, §4

[8] = target: T3, Y537C mutant receptor (ERα LBD mutant); experiment: ERE-luciferase reporter gene assay, ERα Y537C, SKBR3 cells; type: cell-based
Method: as §1, §2, §3, §4

[9] = human, blood, reported Cmax converted to molar, same approved doses, read-out: Converted (M) Cmax

In the case of Cc1c(-c2ccc(O)cc2)n(Cc2ccc(OCCN3CCCCCC3)cc2)c2ccc(O)cc12 [Bazedoxifene, bazedoxifene], the Cmax [1, 9] is listed as 7.29e-09 M and the “Reported Cmax” value [2] is listed as 6.2 ng/mL.

For O=C(c1ccc(OCCN2CCCCC2)cc1)c1c(-c2ccc(O)cc2)sc2cc(O)ccc12 [Raloxifene, raloxifene], the Cmax [1, 9] is given as 2.87e-09 M and the “Reported Cmax” value [2] is given as 1.36 ng/mL.

For 4-hydroxytamoxifen [4OHT], the “Caov2 Ratio Cmax/IC90” value [3] was 119.01, the IC90 [3] was 0.924 nM and the “inhibition of receptor transcriptional activity (in words)” value (shortened to “inhibition”) [3] was “inhibits activity of the ESR1 wild type receptor”. For the same compound, the “Caov2 Ratio Cmax/IC90” value [4] was 11.6, the IC90 [4] was 9.45 nM and the “inhibition” value [4] was “inhibits the Y537N mutant receptor activity in a dose-response manner”. The “Caov2 Ratio Cmax/IC90” value [5] was 13.24, the IC90 [5] was 8.31 nM and the “inhibition” value [5] was “inhibits the Y537C mutant receptor activity in a dose-response manner”. For the same compound, the IC90 [6] was 3.2 nM, the “SKBR3 Ratio Cmax/IC90” value [6] was 34.38 and the “inhibition” value [6] was “inhibits the ESR1 wild type receptor activity”. The IC90 [7] was 130 nM, the “SKBR3 Ratio Cmax/IC90” value [7] was 0.85 and the “inhibition” value [7] was “inhibits the Y537N mutant receptor activity in a dose-response manner”. The IC90 [8] was 59 nM, the “SKBR3 Ratio Cmax/IC90” value [8] was 1.86 and the “inhibition” value [8] was “inhibits the Y537C mutant receptor activity in a dose-response manner”. For the same compound, the Cmax ([1]; in vivo) was 1.1e-07 M and the “Reported Cmax” value [2] was 40 ng/mL.

For C[C@]12CC[C@@H]3c4ccc(O)cc4C[C@@H](CCCCCCCCC[S+]([O-])CCCC(F)(F)C(F)(F)F)[C@H]3[C@@H]1CC[C@@H]2O (some centres unmarked) [ICI, fulvestrant], the Cmax ([1]; human, in vivo) is listed as 4.6e-08 M and the “Reported Cmax” value [2] is listed as 28 ng/mL.
